Assay results from the CheMixHub viscosity set.
Several values for one entry are separate records, joined by “and”; a condition that tells them apart may be missing. Equal entries are not always repeated.

Assay: xn = mol fraction of the nth substance listed

CC(C)[C@@H]1CC[C@@H](C)C[C@H]1O + CCCCCCCO
Conditions	viscosity [mPa·s]
298.15 K, 101.33 kPa, x1 = 0.5	27.53

CCCCCCCCCCO + CCCCCCCO
viscosity [mPa·s], 101.8 kPa
Conditions	x2 = 0.1302	x2 = 0.3682	x2 = 0.5771	x2 = 0.7604	x2 = 0.9256
298.15 K	10.82	9.364	8.193	7.155	6.307
308.15 K	7.586	6.635	5.836	5.18	4.596
318.15 K	5.438	4.801	4.264	3.812	3.413

CCOC(=O)OCC + CCCCCCCO
101 kPa
Conditions	viscosity [mPa·s]
293.15 K, x1 = 0.0488	5.846
293.15 K, x1 = 0.1045	4.795
293.15 K, x1 = 0.1829	3.725
293.15 K, x1 = 0.3015	2.669
293.15 K, x1 = 0.4047	2.08
293.15 K, x1 = 0.4807	1.748
293.15 K, x1 = 0.5714	1.453
293.15 K, x1 = 0.7024	1.153
293.15 K, x1 = 0.7985	0.995
293.15 K, x1 = 0.9023	0.873
293.15 K, x1 = 0.9522	0.831
303.15 K, x1 = 0.06097	4.061
303.15 K, x1 = 0.1159	3.411
303.15 K, x1 = 0.1861	2.773
303.15 K, x1 = 0.296	2.086
303.15 K, x1 = 0.4	1.655
303.15 K, x1 = 0.4747	1.417
303.15 K, x1 = 0.5946	1.149
303.15 K, x1 = 0.7056	0.955
303.15 K, x1 = 0.7928	0.851
303.15 K, x1 = 0.9047	0.755
303.15 K, x1 = 0.9521	0.727
313.15 K, x1 = 0.05658	3.024
313.15 K, x1 = 0.1024	2.586
313.15 K, x1 = 0.1931	2.03
313.15 K, x1 = 0.3063	1.576
313.15 K, x1 = 0.3932	1.348
313.15 K, x1 = 0.4994	1.121
313.15 K, x1 = 0.5837	0.974
313.15 K, x1 = 0.7095	0.811
313.15 K, x1 = 0.7894	0.736
313.15 K, x1 = 0.8956	0.661
313.15 K, x1 = 0.9569	0.634

CC(C)[C@@H]1CC[C@@H](C)C[C@H]1O + CCCCCCO
Conditions	viscosity [mPa·s]
298.15 K, 101.33 kPa, x1 = 0.5	22.95

CCCCCCCCCCO + CCCCCCO
viscosity [mPa·s], 101.8 kPa
Conditions	x2 = 0.1493	x2 = 0.3989	x2 = 0.6071	x2 = 0.7831	x2 = 0.9346
298.15 K	10.38	8.464	7.01	5.822	4.905
308.15 K	7.307	6.019	5.068	4.271	3.643
318.15 K	5.25	4.393	3.745	3.191	2.75

CCOC(=O)OCC + CCCCCCO
101 kPa
Conditions	viscosity [mPa·s]
293.15 K, x1 = 0.0551	4.432
293.15 K, x1 = 0.1001	3.822
293.15 K, x1 = 0.2106	2.778
293.15 K, x1 = 0.3101	2.17
293.15 K, x1 = 0.4052	1.77
293.15 K, x1 = 0.5061	1.454
293.15 K, x1 = 0.6093	1.229
293.15 K, x1 = 0.7555	0.999
293.15 K, x1 = 0.7968	0.958
293.15 K, x1 = 0.8927	0.868
293.15 K, x1 = 0.9522	0.826
303.15 K, x1 = 0.05134	3.305
303.15 K, x1 = 0.1004	2.818
303.15 K, x1 = 0.2102	2.088
303.15 K, x1 = 0.3094	1.667
303.15 K, x1 = 0.4091	1.367
303.15 K, x1 = 0.5094	1.145
303.15 K, x1 = 0.6017	0.998
303.15 K, x1 = 0.7089	0.873
303.15 K, x1 = 0.8045	0.795
303.15 K, x1 = 0.9051	0.734
303.15 K, x1 = 0.9543	0.715
313.15 K, x1 = 0.06803	2.378
313.15 K, x1 = 0.222	1.602
313.15 K, x1 = 0.3216	1.303
313.15 K, x1 = 0.4055	1.125
313.15 K, x1 = 0.5084	0.954
313.15 K, x1 = 0.6037	0.839
313.15 K, x1 = 0.7059	0.748
313.15 K, x1 = 0.8097	0.682
313.15 K, x1 = 0.9065	0.642
313.15 K, x1 = 0.957	0.625

Cc1ccccc1C + CCCCCCO
viscosity, 101 kPa
Conditions	303.15 K	313.15 K	318.15 K	323.15 K
x2 = 0.0999	0.758 mPa·s	0.663 mPa·s	–	0.584 mPa·s
x2 = 0.1	0.7581 mPa·s	0.6626 mPa·s	–	0.5835 mPa·s
x2 = 0.1999	0.852 mPa·s	0.731 mPa·s	–	0.637 mPa·s
x2 = 0.2	0.852 mPa·s	0.7312 mPa·s	0.6825 mPa·s	0.6374 mPa·s
x2 = 0.2999	0.978 mPa·s	0.829 mPa·s	–	0.713 mPa·s
x2 = 0.3	0.9776 mPa·s	0.8292 mPa·s	–	0.7127 mPa·s
x2 = 0.4	1.142 mPa·s	0.9571 mPa·s	–	0.8098 mPa·s
x2 = 0.4001	1.142 mPa·s	0.957 mPa·s	–	0.81 mPa·s
x2 = 0.4997	1.361 mPa·s	1.118 mPa·s	–	0.933 mPa·s
x2 = 0.5	1.361 mPa·s	1.118 mPa·s	–	0.933 mPa·s
x2 = 0.6	1.651 mPa·s and 1.651 mPa·s	1.325 mPa·s and 1.325 mPa·s	–	1.087 mPa·s and 1.087 mPa·s
x2 = 0.7	2.034 mPa·s and 2.034 mPa·s	1.596 mPa·s and 1.596 mPa·s	–	1.284 mPa·s and 1.284 mPa·s
x2 = 0.8	2.532 mPa·s and 2.532 mPa·s	1.951 mPa·s and 1.951 mPa·s	–	1.541 mPa·s and 1.541 mPa·s
x2 = 0.8999	3.141 mPa·s	2.391 mPa·s	–	1.859 mPa·s
x2 = 0.9	3.141 mPa·s	2.391 mPa·s	–	1.859 mPa·s

CN1CCN(C)C1=O + CCCCCCn1cc[n+](C)c1.[Cl-]
100 kPa
Conditions	viscosity [mPa·s]
298.15 K, x2 = 0.1007	4.815
303.15 K, x2 = 0.7981	978.5

CC(C)[C@@H]1CC[C@@H](C)C[C@H]1O + CCCCO
Conditions	viscosity [mPa·s]
298.15 K, 101.33 kPa, x1 = 0.5	18.77
